Assay results as given in patent US20080293087A1, “SULFONYLUREA RECEPTOR SHORT FORMS FROM MITOCHONDRIA AND USES THEREOF” (priority 2006, published 2008).

Tests used:
KIR6.2/NMT 55-SUR2B = experiment: Inside-out patch-clamp potassium current, ATP sensitivity; assay type: cell-based, mouse; settings: 100 μM ATP, COS1 cells containing KIR6.2/NMT 55-SUR2B, 0 mV, room temperature (FIG. 4C)
Description: (§1) Cellular Electrophysiology: Electrophysiology experiments were carried out as previously described by Chutkow el al., with modifications. Chutkow W, et al., “Alternative splicing of sur2 Exon 17 regulates nucleotide sensitivity of the ATP-sensitive potassium channel,” J. Biol. Chem. 274:13656-13665 (1999). Briefly, KIR^6.2 was sub-cloned to 5′ of a bicistronic vector (pIRGFP, as pNQ56.) to express the desired NMT-SUR2 short forms and GFP under control of a cytomegalovirus promoter. The KIR6.2 construct was transiently expressed in COS1 cell lines that stably expressed NMT 55-SUR2A or NMT 55-SUR2B. Cells expressing GFP were used for cellular electrophysiological analysis.
(§2) Potassium currents were measured at room temperature (˜22-25° C.) by an inside-out patch-clamp technique. The bath solution (cytoplasmic side) comprised the following: 140 mM KCl, 2 mM cthylene glycol-bis(β-aminioethyl ether)-N,N,N′,N′-tetraacetic acid (EGTA), 5.5 mM glucose and 5 mM N-2-hydroxyethylpiperazine-N′-2-ethanesulfonic acid (HEPES) with pH 7.3. The pH was adjusted to the designated values using KOH or HCl. 100 μM K2ATP (Sigma) was used to test the ATP sensitivity, and the ATP-containing solutions were freshly prepared. […] Signals were recorded continuously at 0 mV using a patch-clamp amplifier (Axopatch 200; Molecular Devices; Toronto, Canada) and Clampex 10.0 software (Molecular Devices).

KIR6.2/NMT 55-SUR2A = experiment: as above; assay type: cell-based, mouse; settings: 100 μM ATP, COS1 cells containing KIR6.2/NMT 55-SUR2A, 0 mV, room temperature (FIG. 3C)
Description: as §1, §2

KIR6.2 (mouse) = KIR6.2 (mouse) (UniProt Q61743); experiment: cell-based or functional assay
Sequence of UniProt Q61743 (Q61743 whole entry): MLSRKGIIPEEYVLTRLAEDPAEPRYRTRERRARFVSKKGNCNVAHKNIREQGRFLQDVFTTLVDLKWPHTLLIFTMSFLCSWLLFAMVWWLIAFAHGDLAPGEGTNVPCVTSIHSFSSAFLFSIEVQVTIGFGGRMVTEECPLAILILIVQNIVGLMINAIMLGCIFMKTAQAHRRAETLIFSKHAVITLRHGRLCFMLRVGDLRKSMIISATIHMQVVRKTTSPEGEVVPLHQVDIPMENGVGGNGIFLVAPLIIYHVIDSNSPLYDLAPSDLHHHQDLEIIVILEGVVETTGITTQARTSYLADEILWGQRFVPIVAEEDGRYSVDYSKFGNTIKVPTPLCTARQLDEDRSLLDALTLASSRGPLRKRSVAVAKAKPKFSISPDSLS

Row | growth of E. coli K+ uptake mutant 6106 in M9 minimal medium pH 5.5 (KIR6.2 (mouse)) [%] | Compound | IKATP-like current (KIR6.2/NMT 55-SUR2B) | IKATP-like current (KIR6.2/NMT 55-SUR2A)
1 |  | Nc1ncnc2c1ncn2[C@@H]1O[C@H](COP(=O)([O-])OP(=O)(O)OP(=O)([O-])O)[C@@H](O)[C@H]1O.[K+].[K+] [ATP] | inhibited | inhibited
2 | 12 | SUR2B short form (~55 kDa) (from UniProt P70170 1-1504) |  | 
